Experiments:
bacterial contamination = test: Bacterial contamination after 7 days; type: cell-based; conditions: for CFU (bacterial contamination after 7 days): below 10 hardly or not contaminated, above 1,000 heavily contaminated, additions per litre of base solution (BZC 30 ppm, GOX 100 SRU); for effect on bacterial contamination (in words): summary of the table
Protocol: (§1) was placed in a vase with 1 litre of solution. The solution was either tap water or an aqueous base solution containing 10 g/1 of a composition containing 94.66% glucose, 5% citric acid, 0.34% conventional biocides. […] The vases with flowers were placed under 12 per 24 hours of 1000 lux, at 20° C.

[1] = system: mixed bouquet of 12 flowers; test: Flower life of a mixed bouquet of cut flowers in a vase with 1 litre of solution; type: in vivo, Rosa, Chrysanthemum santini, Gerbera, Antirrhinum, Solidago; conditions: 1 litre solution, 20° C., 12 per 24 hours of 1000 lux, additions per litre of base solution (BZC 30 ppm, GOX 100 SRU)
Protocol: as §1, with “A mixed bouquet of 12 flowers composed as follows: was placed” for “was placed”

Substance	CFU (bacterial contamination after 7 days) (bacterial contamination)	effect on bacterial contamination (in words) (bacterial contamination)	FL (flower life) [1]
benzalkonium chloride [BZC]	900 1000 CFU/g stem	strong effect	12.0 days
glucose oxidase [GOX]	4,400 1000 CFU/g stem	strong effect	12.7 days
